pIC50: −log10 of the molar value. Where a name gives a salt, the structure may show the parent alone. Where only a bound is given, the exact number is not on record here.

The target of one assay is Steroidogenic factor 1 (Homo sapiens, UniProt Q13285). The assay is described as follows: blockers of SF-1 LBD reporter transcription – cell-based, CHO-K1, Gal4-SF-1 LBD, luciferase luminescence, dose response (AID 600).
Steroidogenic factor 1, sequence (Q13285 whole entry, the tested form may be a part): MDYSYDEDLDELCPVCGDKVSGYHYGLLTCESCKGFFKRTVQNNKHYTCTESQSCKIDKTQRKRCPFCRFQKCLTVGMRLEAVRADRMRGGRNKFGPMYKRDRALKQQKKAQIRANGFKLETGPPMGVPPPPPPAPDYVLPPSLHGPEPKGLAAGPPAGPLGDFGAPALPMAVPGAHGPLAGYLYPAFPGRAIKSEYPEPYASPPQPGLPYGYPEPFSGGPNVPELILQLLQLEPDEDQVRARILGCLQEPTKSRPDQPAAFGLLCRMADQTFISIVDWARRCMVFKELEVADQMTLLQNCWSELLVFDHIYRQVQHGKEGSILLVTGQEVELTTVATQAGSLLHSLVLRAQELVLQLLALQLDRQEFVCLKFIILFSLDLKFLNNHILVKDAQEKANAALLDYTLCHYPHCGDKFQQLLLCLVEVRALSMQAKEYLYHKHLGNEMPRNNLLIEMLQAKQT
Conditions: not given
Regarding `Nc1nc(Cl)nc2c1ncn2[C@H]1C[C@H](O)[C@@H](CO)O1` [2-CHLORO-2'-DEOXYADENOSINE], the pIC50 was 6.34.

In turn, `CCOC(=O)C1C(Cn2cnc3ccccc32)=NC(=O)NC1c1cc(C)ccc1C` (configuration not stated) [ethyl 6-(benzimidazol-1-ylmethyl)-4-(2,5-dimethylphenyl)-2-oxidanylidene-3,4-dihydro-1H-pyrimidine-5-carboxylate] showed a pIC50 of 4.63. This pIC50 lies 1.71 log units lower than the previous one. Same read-out and setting: the result for `COc1cc(C2c3ccc(N(C)C)cc3OC(=N)C2C#N)cc2c1OCO2` (configuration not stated) [2-amino-7-(dimethylamino)-4-(7-methoxy-1,3-benzodioxol-5-yl)-4H-1-benzopyran-3-carbonitrile] reads less than 5.44; that for `CCn1nc(-c2cccs2)nc2c(=O)n(C)c(=O)nc1-2` [1-ethyl-6-methyl-3-thiophen-2-yl-pyrimido[5,4-e][1,2,4]triazine-5,7-dione], 5.58; that for `Clc1ccc(-c2nnc(NC3=NCCCCC3)o2)cc1`, less than 5.44.

`CCOc1ccc(OCc2cccc(C(=O)O)c2)cc1` [3-[(4-ethoxyphenoxy)methyl]benzoic acid]: the negative-log IC50 (pIC50) is 6.29.

For `COc1ccccc1-c1nnc2sc(-c3ccc(N(C)C)cc3)nn12` [4-[3-(2-methoxyphenyl)-[1,2,4]triazolo[3,4-b][1,3,4]thiadiazol-6-yl]-N,N-dimethyl-aniline], the pIC50 was 5.20. The same measure, in the same setting: under `Cc1ccc(-c2nc3nc4ccccc4nc3n2Cc2ccco2)cc1` [3-(2-furanylmethyl)-2-(4-methylphenyl)imidazo[4,5-b]quinoxaline] stands 5.16; under `COc1cc2c(cc1NC(=O)CSc1nnnn1-c1ccccc1)oc1ccccc12` [MLS000082182], 5.22. On the same count and under the same terms, under `COc1ccc(C(=O)NC(=O)Nc2cc(C)ccn2)cc1` [4-methoxy-N-[(4-methyl-2-pyridyl)carbamoyl]benzamide] stands less than 5.91; under `c1ccc(-c2noc(-c3ccc4ccccc4c3)n2)nc1` [2-[5-(2-naphthyl)-1,2,4-oxadiazol-3-yl]pyridine], 6.15.

In turn, `Cc1ccc(-c2cc(C(=O)N3CCCC3)no2)cc1` [5-(4-methylphenyl)-3-(1-pyrrolidinylcarbonyl)isoxazole] showed a pIC50 of less than 5.44. `Cc1cccc(-n2ncc3c(N(C)C4CCCCC4)ncnc32)c1` [MLS000100814]: the pIC50 was less than 5.44.

`Cn1ncnc2c(=O)n(C)c(=O)nc1-2` had a pIC50 of 6.12.

With `CCOc1ccc(-c2nc(CSCC(=O)NCCN3CCOCC3)c(C)o2)cc1` [2-({[2-(4-ethoxyphenyl)-5-methyl-1,3-oxazol-4-yl]methyl}thio)-N-(2-morpholin-4-ylethyl)acetamide], the pIC50 is 5.36.

With `COc1cc(NS(=O)(=O)c2ccc(C)cc2C)cc(OC)c1OC` [2,4-dimethyl-N-(3,4,5-trimethoxyphenyl)benzenesulfonamide], the pIC50 was less than 4.96. On the same count and under the same terms, the result for `Cc1nnc(SC(=O)N2c3ccccc3Sc3ccccc32)s1` [10-phenothiazinecarbothioic acid S-(5-methyl-1,3,4-thiadiazol-2-yl) ester] reads 5.27; that for `CCNc1nc2c(c(=O)n(C)c(=O)n2C)n1Cc1ccc(Cl)cc1` [7-(4-chlorobenzyl)-8-(ethylamino)-1,3-dimethyl-xanthine], less than 5.44. For `O=C(CC=Nc1ccc2c(c1)OCO2)c1ccccn1` [(Z)-3-(1,3-benzodioxol-5-ylamino)-1-(2-pyridinyl)-2-propen-1-one], the pIC50 was 4.87.

`Cn1c(SC2=CS(=O)(=O)c3ccccc32)nc2ccccc21` [2-(1,1-Dioxo-1H-1lambda*6*-benzo[b]thiophen-3-ylsulfanyl)-1-methyl-1H-benzoimidazole] gave a pIC50 of less than 5.44. On the same count and under the same terms, the result for `CCOC(=O)C1CCN(Cc2ccc(O)c3ncccc23)CC1` [1-(8-Hydroxy-quinolin-5-ylmethyl)-piperidine-4-carboxylic acid ethyl ester] reads 5.01; that for `COc1ccc(CCNc2nnc(Sc3nnnn3-c3ccccc3)s2)cc1OC` [MLS000056567], 5.29. On the same count and under the same terms, under `Cc1ccc2nc(-c3ccccc3)cn2c1` [6-methyl-2-phenyl-imidazo[1,2-a]pyridine;hydrobromide] stands 5.71; under `COc1ccc(-c2cc3nc4n(c(=O)c3s2)CCOC4)cc1` [2-(4-methoxyphenyl)-7,8-dihydro-5H-thieno[1,2]pyrimido[4,5-a][1,4]oxazin-10-one], 5.17; under `COc1cc(C2Nc3cccc4cccc(c34)N2)cc(OC)c1OC(C)=O` [MLS000078084], 5.11.

With `C[S+]([O-])c1nc(-c2ccc(Br)cc2)cc(-c2ccccc2)c1C#N` (configuration not stated) [6-(4-bromophenyl)-2-(methylsulfinyl)-4-phenylnicotinonitrile], the pIC50 is 5.28. The pIC50 values of the last two molecules are within 0.2 log units of each other. On to `O=C(c1ccc(Cl)cc1)N1CCCCC(Sc2nnc(-c3ccc4c(c3)OCO4)o2)C1=O` (configuration not stated) [3-[[5-(1,3-benzodioxol-5-yl)-1,3,4-oxadiazol-2-yl]sulfanyl]-1-(4-chlorobenzoyl)azepan-2-one], for which the pIC50 was 5.97. Regarding `CCOC(=O)c1cnc(-n2nc(C)cc2C)nc1NC(C)c1ccccc1` (configuration not stated) [2-(3,5-dimethyl-1-pyrazolyl)-4-(1-phenylethylamino)-5-pyrimidinecarboxylic acid ethyl ester], the pIC50 is 5.16. Still for that read-out and setting: the result for `CCOc1ccccc1-n1c(SCC(=O)Nc2ccc(CC)cc2)nc2nnc(C)c-2c1N` [MLS000047091] reads 5.22.

As to `Nc1nnnn1N=C/C(Br)=C/c1ccccc1` [1-[[(Z)-2-bromanyl-3-phenyl-prop-2-enylidene]amino]-1,2,3,4-tetrazol-5-amine], the pIC50 was 5.50. Regarding `c1c2c(cc3sc(N4CCOCC4)nc13)OCCO2` [2-(4-morpholinyl)-6,7-dihydro-[1,4]dioxino[2,3-f][1,3]benzothiazole], the pIC50 was less than 5.44. As to `CN1C2C=C3C(C#N)=C(N)C(C#N)(C#N)[C@@H](c4ccc(Cl)cc4)[C@@H]3C1CC2` (some centres not stated) [SMR000038778], the pIC50 is 5.47.

Molecule `Clc1ccc(-c2nc(-c3ccccn3)no2)cc1Cl` [5-(3,4-dichlorophenyl)-3-(2-pyridinyl)-1,2,4-oxadiazole] had a pIC50 of 5.25. This pIC50 lies 0.22 log units lower than the previous one.

Molecule `CCN(CC)c1ccc(-c2nn3c(-c4ccccc4OC)nnc3s2)cc1` showed a pIC50 of 5.30. Regarding `CCOC(=O)N1CCN(C(=O)C2CCN(c3ncnc4c3sc3cccc(F)c34)CC2)CC1` [4-[1-(9-fluorobenzothiopheno[3,2-d]pyrimidin-4-yl)isonipecotoyl]piperazine-1-carboxylic acid ethyl ester], the pIC50 was 5.10. The same measure, in the same setting: under `c1ccc(-c2noc(-c3ccc4c(c3)OCO4)n2)nc1` [2-[5-(1,3-benzodioxol-5-yl)-1,2,4-oxadiazol-3-yl]pyridine] stands 5.87; under `COc1cc(CC(NC(C)=O)C(=O)NC2CCN(c3nc(C)cc(C)c3C#N)CC2)cc(OC)c1` (configuration not stated) [2-Acetylamino-N-(3'-cyano-4',6'-dimethyl-3,4,5,6-tetrahydro-2H-[1,2']bipyridinyl-4-yl)-3-(3,5-dimethoxy-phenyl)-propionamide], less than 4.48. On the same count and under the same terms, under `CC1CCCCC1NS(=O)(=O)c1ccc(S(=O)(=O)NCc2ccncc2)cc1` (configuration not stated) [4-N-(2-methylcyclohexyl)-1-N-(pyridin-4-ylmethyl)benzene-1,4-disulfonamide] stands less than 4.48; under `Fc1ccc2[nH]c3c(N4CCN(c5ccccc5)CC4)ncnc3c2c1`, 5.98; under `CC(=O)Nc1ccc(SCC(=O)c2cc(C)n(Cc3cccs3)c2C)cc1` [MLS000058142], 5.40. Still for that read-out and setting: under `CCc1nn2cc(-c3ccccc3)nc2s1` [2-ethyl-6-phenyl-imidazo[2,1-b][1,3,4]thiadiazole] stands 5.36; under `CCOc1ccc(-c2nnc(-c3ccco3)o2)cc1` [2-(2-furyl)-5-p-phenetyl-1,3,4-oxadiazole], 5.28.

On to `O=c1cc(N2CCN(c3cccc(Cl)c3)CC2)[nH]c(=O)n1C1CCCCC1` [MLS000094380], for which the pIC50 is 6.50. `CCOC(=O)c1c(N)sc(C(=O)Nc2ccc3c(c2)OCO3)c1C` [2-amino-5-(1,3-benzodioxol-5-ylcarbamoyl)-4-methyl-thiophene-3-carboxylic acid ethyl ester]: the pIC50 is less than 5.44.

The assay is the same for the next values; noted with them: inactive by the depositor's call.
In the case of `COc1cc(C(=O)Oc2c(CN3CCOCC3)cc(Cl)c3cccnc23)cc(OC)c1OC` [3,4,5-trimethoxybenzoic acid [5-chloro-7-(4-morpholinylmethyl)-8-quinolinyl] ester], the pIC50 is 4.91.

Regarding `Cc1nn(-c2ccccc2)c(C)c1C(=O)OCC(=O)c1c(N)n(CC(C)C)c(=O)n(C)c1=O` [3,5-dimethyl-1-phenyl-4-pyrazolecarboxylic acid [2-[4-amino-1-methyl-3-(2-methylpropyl)-2,6-dioxo-5-pyrimidinyl]-2-oxoethyl] ester], the pIC50 is 4.52. On the same count and under the same terms, the result for `COc1cccc(N2CCN(c3ncnc4c3[nH]c3ccccc34)CC2C)c1` (configuration not stated) [4-[4-(3-methoxyphenyl)-3-methyl-1-piperazinyl]-5H-pyrimido[5,4-b]indole] reads 4.54.

In the case of `Cc1cc(NC(=O)c2ccc3c(c2)OCCO3)no1` [MLS000064124], the pIC50 was 4.88. Same read-out and setting: under `COc1ccc(CC(=O)Nc2ccc(-c3nnc(-c4ccccc4)o3)cc2)cc1` [2-(4-methoxyphenyl)-N-[4-(5-phenyl-1,3,4-oxadiazol-2-yl)phenyl]acetamide] stands 4.74; under `c1ccc(CN2CCN(c3ncnc4c3[nH]c3ccccc34)CC2)cc1` [MLS000078384], 4.81. The same measure, in the same setting: under `CC(C)OCCCNc1ncnc2c1[nH]c1ccc(F)cc12` stands 4.68; under `Cc1occc1C(=O)N1CCN(c2ccc(Cl)c(Cl)c2)CC1` [1-(3,4-dichlorophenyl)-4-(2-methyl-3-furoyl)piperazine], 4.53; under `C=CCOC(=O)c1[nH]c2c(c1C)C(=O)CC(c1cc(OC)c(OC)c(OC)c1)C2` (configuration not stated) [SMR000093465], 4.74. On to `O=S(=O)(NCc1cn2ccsc2n1)c1ccc(Oc2ccccc2)cc1` [MLS000094195], for which the pIC50 is 4.46. On the same count and under the same terms, under `Fc1ccc2[nH]c3c(N4CCSCC4)ncnc3c2c1` [MLS000078401] stands 4.93; under `CCCCOC(=O)c1[nH]c2c(c1C)C(=O)CC(c1cc(OC)c(OC)c(OC)c1)C2` (configuration not stated), 4.77.

`COc1ccccc1OCC(=O)c1[nH]c(C)c(C(C)=O)c1C` [MLS000053479] showed a pIC50 of 4.48.

The pIC50 is the IC50 on a negative log10 scale, so that one unit is a factor of ten.
